Data on 5 molecules can be found in patent publication US10870647B2, “Imidazopyridine derivative, method for preparing same, and pharmaceutical composition containing same as active ingredient for preventing or treating cancer” (DAEGU-GYEONGBUK MEDICAL INNOVATION FOUNDATION, priority 2016, dated 2020).

In one assay the test system is GIST430/654. In words: Cancer cell proliferation inhibition, cell viability after 72 hours. Format: cell-based. The conditions noted are these: GIST-430/654, imatinib-resistant. In outline:
(§1)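 GIST-T1/816, GIST-430 and GIST-430/654 seeded at 2×10^4/100 μl; GIST-R3 (patient-derived, imatinib/sunitinib-resistant) likewise. Compounds added next day at 8 concentrations; viability after 72 hours by EZ-cytox or CellTiter-Glo, as % of vehicle-treated cells, IC50 from curves; two independent experiments.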

A further assay concerns GIST-T1/816. Described as above. In kind it is cell-based. The conditions noted are these: Homo sapiens, GISTT1, imatinib-resistant. The essentials: as §1
In a further assay the test system is GIST-T1. Described as above. The conditions noted are these: Homo sapiens, GISTT1, imatinib-sensitive. Format: cell-based.
A further assay relates to GIST430. Described as above. The conditions noted are these: Homo sapiens, imatinib-sensitive. In kind it is cell-based. The essentials: as §1
The subject of another assay is SK-MEL-28. The assay can be described thus: Cancer cell proliferation inhibition, MTS assay, 72 hours. The conditions noted are these: Homo sapiens. Format: cell-based. The essentials: (§2)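 3,000 cells/well, 24 h pre-culture (37° C, 5% CO2); serial dilution of compound, top 50 μM, DMSO 0.05% v/v; 72 h exposure; MTS/PMS 2 h, OD450. IC50 = concentration giving 50% inhibition relative to DMSO control, n = 3 data sets.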
Background: Tetrazolium dyes change colour on reduction, which living cells bring about.

Another assay relates to Ret^Parental (Ba/F3). Described as above. Format: cell-based. The conditions noted are these: Mus musculus, BaF3. In outline:
as §2

The next assay has as its target T1, Ret^wt (Ba/F3) (Homo sapiens, UniProt P07949).
T1 construct: candidates are KIF5B, CCDC6, TEL (ETV6), or none (full-length RET)
Described as above. Format: cell-based. The conditions noted are these: read-out: Ret^wt (Ba/F3) IC50. The essentials:
as §2

In another assay the test system is RET (LC2/ad-CDC6). The description is as above. The conditions noted are these: 72 h. In kind it is cell-based. The essentials:
as §2

For another assay, the system named is FYN (MCP-1). The description is as above. In kind it is cell-based. In outline:
as §2

A further assay deals with Huh7. The description is as above. Format: cell-based. The conditions noted are these: Homo sapiens, Huh-7. The essentials: as §2
The next assay addresses T2, Ret^V804M (Ba/F3) (Homo sapiens, UniProt P07949, V804M, cells depend on it, form not given).
T2 construct: candidates are KIF5B, CCDC6, TEL (ETV6), or none (full-length RET)
The assay is described as above. Format: cell-based. The conditions noted are these: read-out: Ret^V804M (Ba/F3) IC50. In outline:
as §2

Another assay concerns the target T3, RET(V804M) (Homo sapiens, UniProt P07949, V804M).
T3 construct: purchased Reaction Biology Co
The assay can be described thus: Enzyme inhibitory activity (Kd), Reaction Biology Co. In kind it is binding.

The target in a further assay is T4, RET (Homo sapiens, UniProt P07949).
T4 construct: purchased Reaction Biology Co
T4 sequence (P07949 29-1114): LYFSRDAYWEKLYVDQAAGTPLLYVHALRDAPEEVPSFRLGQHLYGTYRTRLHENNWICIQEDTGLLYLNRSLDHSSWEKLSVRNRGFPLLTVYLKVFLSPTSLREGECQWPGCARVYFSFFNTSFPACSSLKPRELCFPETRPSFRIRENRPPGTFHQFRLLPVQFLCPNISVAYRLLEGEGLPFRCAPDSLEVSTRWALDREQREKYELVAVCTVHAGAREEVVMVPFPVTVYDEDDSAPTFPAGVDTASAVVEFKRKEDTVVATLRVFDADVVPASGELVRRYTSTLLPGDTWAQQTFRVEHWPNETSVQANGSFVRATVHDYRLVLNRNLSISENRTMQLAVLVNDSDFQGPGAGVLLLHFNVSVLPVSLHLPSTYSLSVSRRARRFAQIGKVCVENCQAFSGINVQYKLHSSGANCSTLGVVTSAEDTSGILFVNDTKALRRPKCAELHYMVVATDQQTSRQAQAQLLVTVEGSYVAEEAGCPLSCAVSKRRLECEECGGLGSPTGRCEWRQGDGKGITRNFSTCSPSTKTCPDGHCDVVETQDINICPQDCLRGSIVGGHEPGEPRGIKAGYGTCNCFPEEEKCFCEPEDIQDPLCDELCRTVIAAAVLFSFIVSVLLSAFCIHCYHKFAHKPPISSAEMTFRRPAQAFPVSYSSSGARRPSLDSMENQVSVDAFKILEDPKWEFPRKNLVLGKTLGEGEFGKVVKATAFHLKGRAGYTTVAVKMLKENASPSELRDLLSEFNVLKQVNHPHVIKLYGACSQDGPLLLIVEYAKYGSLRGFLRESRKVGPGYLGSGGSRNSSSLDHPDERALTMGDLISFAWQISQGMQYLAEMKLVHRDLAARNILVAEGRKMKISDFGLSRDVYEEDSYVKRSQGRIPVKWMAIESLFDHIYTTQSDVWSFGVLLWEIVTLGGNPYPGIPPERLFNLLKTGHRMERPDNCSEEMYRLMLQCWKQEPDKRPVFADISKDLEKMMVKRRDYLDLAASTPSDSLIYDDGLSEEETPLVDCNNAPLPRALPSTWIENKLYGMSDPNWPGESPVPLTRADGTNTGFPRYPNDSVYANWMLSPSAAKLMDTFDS
The description is as above. In kind it is binding.

The next assay addresses T5, LOK (Homo sapiens, UniProt O94804).
T5 construct: purchased Reaction Biology Co
Described as above. In kind it is binding.

A further assay addresses T6, FGFR4 (Homo sapiens, UniProt P22455).
T6 construct: purchased Reaction Biology Co
The assay is described as above. Format: binding.

The next assay has as its target T7, CSF1R (Homo sapiens, UniProt P07333).
T7 construct: purchased Reaction Biology Co
Described as above. In kind it is binding.

In assay [1] the target is T8, JAK2(JH1domain-catalytic) (Homo sapiens, UniProt O60674).
T8 construct: JAK2 (JH1domain-catalytic); purchased Reaction Biology Co
T8 sequence (O60674 849-1124 limits assumed): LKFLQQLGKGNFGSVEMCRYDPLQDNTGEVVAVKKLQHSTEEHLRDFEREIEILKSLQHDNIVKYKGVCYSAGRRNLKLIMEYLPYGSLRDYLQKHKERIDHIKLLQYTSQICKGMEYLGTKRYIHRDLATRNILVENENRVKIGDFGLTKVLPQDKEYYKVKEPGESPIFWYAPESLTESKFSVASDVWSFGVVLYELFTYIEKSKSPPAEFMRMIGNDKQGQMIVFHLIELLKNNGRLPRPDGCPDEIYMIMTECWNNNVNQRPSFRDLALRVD
Described as above. In kind it is binding.

For another assay, the system named is FYN (FN). In words: Cancer cell proliferation inhibition, MTS assay, 72 hours. Format: cell-based. The essentials: as §2
The target of a further assay is T9, LYN (Homo sapiens, UniProt P07948).
T9 construct: purchased Reaction Biology Co
T9 sequence (P07948 whole entry): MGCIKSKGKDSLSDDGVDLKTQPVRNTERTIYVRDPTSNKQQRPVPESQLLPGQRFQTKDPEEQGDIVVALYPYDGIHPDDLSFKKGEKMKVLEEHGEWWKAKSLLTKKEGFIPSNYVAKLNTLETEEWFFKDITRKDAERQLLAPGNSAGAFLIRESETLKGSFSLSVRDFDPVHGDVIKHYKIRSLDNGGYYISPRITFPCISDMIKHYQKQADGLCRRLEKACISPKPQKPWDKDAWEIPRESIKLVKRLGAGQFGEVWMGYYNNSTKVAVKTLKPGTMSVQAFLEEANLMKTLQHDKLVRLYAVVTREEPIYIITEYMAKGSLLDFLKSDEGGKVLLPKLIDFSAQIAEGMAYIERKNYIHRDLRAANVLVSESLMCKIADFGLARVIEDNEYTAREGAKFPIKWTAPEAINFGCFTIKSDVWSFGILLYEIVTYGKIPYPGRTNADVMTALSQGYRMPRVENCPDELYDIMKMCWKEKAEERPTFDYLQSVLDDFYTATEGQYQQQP
In words: Enzyme inhibitory activity (Kd), Reaction Biology Co. In kind it is binding.

T1 sequence (P07949 whole entry, change not shown): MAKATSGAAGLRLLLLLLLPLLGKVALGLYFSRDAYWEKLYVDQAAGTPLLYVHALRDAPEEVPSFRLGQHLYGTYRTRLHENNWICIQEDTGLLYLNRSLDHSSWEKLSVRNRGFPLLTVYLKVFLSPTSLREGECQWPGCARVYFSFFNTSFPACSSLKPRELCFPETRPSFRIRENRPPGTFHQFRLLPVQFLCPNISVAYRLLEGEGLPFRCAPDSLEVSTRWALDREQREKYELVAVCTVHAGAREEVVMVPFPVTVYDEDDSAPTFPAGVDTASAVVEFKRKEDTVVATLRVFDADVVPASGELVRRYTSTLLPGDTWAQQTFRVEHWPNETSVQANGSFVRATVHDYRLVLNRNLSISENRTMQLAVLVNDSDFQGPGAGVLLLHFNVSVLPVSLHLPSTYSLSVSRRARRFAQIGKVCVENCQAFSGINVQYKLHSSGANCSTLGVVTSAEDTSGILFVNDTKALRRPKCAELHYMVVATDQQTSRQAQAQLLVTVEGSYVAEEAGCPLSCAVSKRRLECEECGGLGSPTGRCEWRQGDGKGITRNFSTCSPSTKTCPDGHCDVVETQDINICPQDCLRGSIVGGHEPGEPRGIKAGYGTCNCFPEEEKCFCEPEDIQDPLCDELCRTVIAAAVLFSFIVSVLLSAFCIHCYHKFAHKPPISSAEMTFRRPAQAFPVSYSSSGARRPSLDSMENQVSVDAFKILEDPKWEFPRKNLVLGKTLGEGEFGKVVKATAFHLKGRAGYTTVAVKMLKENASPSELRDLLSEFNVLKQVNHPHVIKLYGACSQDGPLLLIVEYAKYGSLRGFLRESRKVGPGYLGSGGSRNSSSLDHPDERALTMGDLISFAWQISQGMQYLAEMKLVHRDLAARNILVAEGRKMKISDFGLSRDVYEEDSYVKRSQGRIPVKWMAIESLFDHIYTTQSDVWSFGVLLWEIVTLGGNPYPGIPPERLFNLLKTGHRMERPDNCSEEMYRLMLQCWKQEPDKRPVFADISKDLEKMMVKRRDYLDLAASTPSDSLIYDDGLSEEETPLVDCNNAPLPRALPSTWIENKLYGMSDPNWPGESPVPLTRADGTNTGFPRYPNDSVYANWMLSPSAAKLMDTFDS
T3 sequence (P07949 29-1114 V804M): as the sequence (P07949 29-1114) above, with V776M counted along it
T6 sequence (P22455 22-802): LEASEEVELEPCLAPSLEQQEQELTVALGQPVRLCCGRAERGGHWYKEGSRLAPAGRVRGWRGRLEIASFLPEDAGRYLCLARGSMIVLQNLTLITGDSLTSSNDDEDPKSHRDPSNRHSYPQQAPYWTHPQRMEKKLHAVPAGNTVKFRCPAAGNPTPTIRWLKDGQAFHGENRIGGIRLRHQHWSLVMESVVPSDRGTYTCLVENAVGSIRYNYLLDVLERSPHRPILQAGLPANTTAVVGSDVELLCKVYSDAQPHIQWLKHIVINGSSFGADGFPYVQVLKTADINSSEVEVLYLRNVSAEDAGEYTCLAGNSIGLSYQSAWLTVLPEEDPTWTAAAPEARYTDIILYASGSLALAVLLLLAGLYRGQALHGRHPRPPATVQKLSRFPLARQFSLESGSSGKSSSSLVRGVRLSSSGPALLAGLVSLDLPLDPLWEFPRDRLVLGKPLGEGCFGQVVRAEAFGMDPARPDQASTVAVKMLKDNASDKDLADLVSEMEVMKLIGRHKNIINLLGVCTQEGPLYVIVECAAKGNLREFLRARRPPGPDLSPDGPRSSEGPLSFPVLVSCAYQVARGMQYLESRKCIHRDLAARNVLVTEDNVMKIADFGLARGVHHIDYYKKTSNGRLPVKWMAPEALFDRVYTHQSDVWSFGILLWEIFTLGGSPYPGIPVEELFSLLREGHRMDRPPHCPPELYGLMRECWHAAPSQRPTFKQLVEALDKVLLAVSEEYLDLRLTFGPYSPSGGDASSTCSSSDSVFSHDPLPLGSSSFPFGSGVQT
T2 sequence (P07949 whole entry V804M, form open): as the sequence (P07949 whole entry, change not shown) above, with V804M counted along it
T7 sequence (P07333 20-972): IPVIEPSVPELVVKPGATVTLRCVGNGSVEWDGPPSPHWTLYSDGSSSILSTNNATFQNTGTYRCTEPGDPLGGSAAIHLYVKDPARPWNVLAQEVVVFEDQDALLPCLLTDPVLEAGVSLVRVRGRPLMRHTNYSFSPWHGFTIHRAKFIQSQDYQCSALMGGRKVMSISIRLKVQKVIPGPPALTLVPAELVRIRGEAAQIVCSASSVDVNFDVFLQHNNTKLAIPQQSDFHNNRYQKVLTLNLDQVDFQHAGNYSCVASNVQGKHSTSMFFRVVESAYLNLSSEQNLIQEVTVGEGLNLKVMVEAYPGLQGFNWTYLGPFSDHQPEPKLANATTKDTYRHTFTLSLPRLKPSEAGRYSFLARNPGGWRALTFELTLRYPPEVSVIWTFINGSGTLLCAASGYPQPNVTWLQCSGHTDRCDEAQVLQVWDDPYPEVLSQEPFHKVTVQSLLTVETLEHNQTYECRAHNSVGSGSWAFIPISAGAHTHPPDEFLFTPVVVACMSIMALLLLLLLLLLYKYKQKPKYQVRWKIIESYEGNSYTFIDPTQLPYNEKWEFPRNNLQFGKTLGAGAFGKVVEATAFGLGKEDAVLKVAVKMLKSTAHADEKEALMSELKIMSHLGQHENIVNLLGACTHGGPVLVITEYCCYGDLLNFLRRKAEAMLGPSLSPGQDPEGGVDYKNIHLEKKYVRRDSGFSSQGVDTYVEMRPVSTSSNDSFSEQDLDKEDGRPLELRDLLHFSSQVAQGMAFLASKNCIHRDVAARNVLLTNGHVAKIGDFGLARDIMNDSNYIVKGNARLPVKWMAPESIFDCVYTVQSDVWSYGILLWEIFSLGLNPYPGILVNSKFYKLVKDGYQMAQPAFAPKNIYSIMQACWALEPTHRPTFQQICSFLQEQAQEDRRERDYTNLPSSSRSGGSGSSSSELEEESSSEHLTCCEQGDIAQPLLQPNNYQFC

With `Cc1ccc(C(=O)Nc2ccc(CN3CCN(C)CC3)c(C(F)(F)F)c2)cc1C#Cc1cnc2c(Nc3cnn(C)c3)cccn12` [Example 1, 4-methyl-3-((8-((1-methyl-1H-pyrazol-4-yl)amino)imidazo[1,2-a]pyridin-3-yl)ethynyl)-N-(4-((4-methylpiperazin-1-yl)methyl)-3-(trifluoromethyl)phenyl)benzamide], the IC50 (commonly the midpoint of a concentration-inhibition curve) in the assay on GIST430/654 is 332 nM; in the assay on GIST-T1/816, 35.4 nM; in the assay with GIST-T1, 1.9 nM; in the assay with GIST430 it was 36.8 nM; in the assay with SK-MEL-28, 334 nM; with Ret^Parental (Ba/F3), 1210 nM. Also, the IC50 in the assay with RET (LC2/ad-CDC6) is less than 10 nM; in the assay on FYN (MCP-1), 730 nM; with Huh7, 65 nM. The values for the GI50 on Ret^wt (Ba/F3) and at Ret^V804M (Ba/F3) were 3 nM and 5 nM, respectively. The Kd (as a rule, the equilibrium constant for the complex coming apart) on RET(V804M) came to 11 nM; on RET, 10 nM; on LOK, 7.3 nM; at FGFR4, 56 nM; at CSF1R, 34 nM; in assay [1], 220 nM.

For the molecule `CCN1CCN(Cc2ccc(NC(=O)c3ccc(C)c(C#Cc4cnc5c(Nc6cnn(C)c6)cccn45)c3)cc2C(F)(F)F)CC1` [Example 8, N-(4-((4-ethylpiperazin-1-yl)methyl)-3-(trifluoromethyl)phenyl)-4-methyl-3-((8-((1-methyl-1H-pyrazol-4-yl)amino)imidazo[1,2-a]pyridin-3-yl)ethynyl)benzamide], the IC50 in the assay on SK-MEL-28 is 586 nM; in the assay with Ret^Parental (Ba/F3), 1320 nM; with FYN (FN), less than 1000 nM; in the assay with FYN (MCP-1), less than 1000 nM; with Huh7, 255 nM. In addition, the GI50 on Ret^wt (Ba/F3) worked out at 2 nM; at Ret^V804M (Ba/F3) it was 10 nM. In addition, the Kd is 15 nM on LYN; 9.1 nM at RET(V804M); 7.5 nM at RET; 57 nM on FGFR4; 270 nM in assay [1].

For `Cc1ccc(C(=O)Nc2cccc(C(F)(F)F)c2)cc1C#Cc1cnc2c(Nc3cnn(C4CCNCC4)c3)cccn12` [Example 11, 4-methyl-3-((8-((1-(piperidin-4-yl)-1H-pyrazol-4-yl)amino)imidazo[1,2-a]pyridin-3-yl)ethynyl)-N-(3-(trifluoromethyl)phenyl)benzamide], the 50% inhibitory concentration (IC50) is 560 nM with GIST430/654; 40.7 nM in the assay on GIST-T1/816; 0.8 nM with GIST-T1; 63.6 nM with GIST430; 1460 nM in the assay on SK-MEL-28; 2400 nM with Ret^Parental (Ba/F3). Further, the figures for the IC50 with FYN (FN), in the assay with FYN (MCP-1) and in the assay on Huh7 were less than 100 nM, less than 100 nM and 1220 nM, respectively. The GI50 came to 5 nM at Ret^wt (Ba/F3) and 98 nM at Ret^V804M (Ba/F3).

For `Cc1cn(-c2cc(NC(=O)c3ccc(C)c(C#Cc4cnc5c(Nc6cnn(C)c6)cccn45)c3)cc(C(F)(F)F)c2)cn1` [Example 12, 4-methyl-N-(3-(4-methyl-1H-imidazol-1-yl)-5-(trifluoromethyl)phenyl)-3-((8-((1-methyl-1H-pyrazol-4-yl)amino)imidazo[1,2-a]pyridin-3-yl)ethynyl)benzamide], the IC50 was 564 nM in the assay on GIST430/654; 308 nM with GIST-T1/816; 12.3 nM in the assay on GIST-T1; 56.3 nM with GIST430; greater than 10000 nM with SK-MEL-28; less than 100 nM in the assay with FYN (FN). In addition, the IC50 is less than 100 nM in the assay on RET (LC2/ad-CDC6), less than 100 nM in the assay on FYN (MCP-1) and 147 nM in the assay with Huh7. Besides, the GI50 on Ret^wt (Ba/F3) worked out at 17 nM; on Ret^V804M (Ba/F3) it was 54 nM. Moreover, the Kd was 32 nM on RET(V804M), 25 nM at RET and 370 nM on FGFR4.

Regarding `Cc1ccc(NC(=O)C2(C(=O)Nc3ccc(F)cc3)CC2)cc1C#Cc1cnc2c(Nc3cnn(C(C)C)c3)cccn12` [Example 78], the IC50 is 4550 nM in the assay with SK-MEL-28, less than 10000 nM with RET (LC2/ad-CDC6) and 5120 nM in the assay on Huh7. Further, the Kd at LOK stood at 37 nM; on CSF1R, 440 nM.
